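Interpolation was linear, between the two tested concentrations surrounding the appropriate level; five concentrations were tested over 48 hours in 96-well plates. Here, GI50 denotes the concentration required for 50% inhibition of growth.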 Active and inactive are the calls of the source. No stated cut-off is given here; in the data, active = GI50 up to about 1.1 µM and inactive = higher.
Legend:
Test in all cases: NCI-60 cell line screen, 48 h
CAKI-1 = tested on: CAKI-1
RPMI-8226 = tested on: RPMI-8226
HOP-92 = tested on: HOP-92
TK-10 = tested on: TK-10
CCRF-CEM = tested on: CCRF-CEM
SNB-78 = tested on: SNB-78
SF-295 = tested on: SF-295
EKVX = tested on: EKVX
NCI-H460 = tested on: NCI-H460
HCT-116 = tested on: HCT-116
SW-620 = tested on: SW-620
XF498 = tested on: XF498
OVCAR-3 = tested on: OVCAR-3
UACC-62 = tested on: UACC-62
IGROV-1 = tested on: IGROV-1
DLD-1 = tested on: DLD-1
SNB-75 = tested on: SNB-75
SK-OV-3 = tested on: SK-OV-3

Measured: GI50

CCCn1c(SCC)c2ccccc2c1-c1nc(F)nc(F)n1
inactive: CAKI-1 > 100 µM | RPMI-8226 > 100 µM | HOP-92 > 100 µM | TK-10 > 100 µM | CCRF-CEM > 100 µM | SNB-78 > 100 µM | SF-295 > 100 µM | EKVX > 100 µM | NCI-H460 > 100 µM | HCT-116 > 100 µM | SW-620 > 100 µM | XF498 > 100 µM | OVCAR-3 > 100 µM

Cc1ccc(S(=O)(=O)OC(c2ccc(Cl)cc2Cl)C2OC(=O)c3ccccc32)cc1 (stereo not given)
inactive: RPMI-8226 36.7 µM | TK-10 > 100 µM | CCRF-CEM 34.8 µM | SNB-78 > 100 µM | SF-295 90.2 µM | EKVX > 100 µM | NCI-H460 35.8 µM | HCT-116 30.8 µM | SW-620 71.4 µM | XF498 > 100 µM | OVCAR-3 40.4 µM | UACC-62 53.8 µM | IGROV-1 97.3 µM

N#CCc1c(-c2ccccc2)n(S(=O)(=O)c2ccccc2)c2ccccc12
inactive: CAKI-1 > 100 µM | RPMI-8226 31.2 µM | HOP-92 8.89 µM | TK-10 > 100 µM | CCRF-CEM > 100 µM | SF-295 25.1 µM | NCI-H460 > 100 µM | HCT-116 37.1 µM | DLD-1 > 100 µM | SW-620 > 100 µM | SNB-75 6.78 µM | XF498 > 100 µM | OVCAR-3 > 100 µM | UACC-62 94.2 µM | IGROV-1 > 100 µM

COc1ccc(C(=O)C(C(=O)CCC(=O)Nc2cccc(Cl)c2)c2ccc(OC)cc2)cc1 (stereo not given)
inactive: CAKI-1 > 100 µM | RPMI-8226 > 100 µM | HOP-92 > 100 µM | TK-10 > 100 µM | CCRF-CEM > 100 µM | SF-295 > 100 µM | SK-OV-3 > 100 µM | EKVX > 100 µM | NCI-H460 > 100 µM | HCT-116 > 100 µM | DLD-1 > 100 µM | SW-620 > 100 µM | SNB-75 61.2 µM | XF498 > 100 µM | OVCAR-3 > 100 µM | UACC-62 > 100 µM | IGROV-1 > 100 µM

Cc1cc2c(cc1C)[n+]([O-])c(C(=O)C/C(=N/OCCCc1ccccc1)C(=O)Nc1cc(Cl)ccc1Cl)c(C)[n+]2[O-]
inactive: CAKI-1 > 100 µM | TK-10 > 100 µM | CCRF-CEM 33.3 µM | SNB-78 > 100 µM | SF-295 > 100 µM | SK-OV-3 > 100 µM | EKVX > 100 µM | NCI-H460 > 100 µM | HCT-116 > 100 µM | DLD-1 > 100 µM | SW-620 > 100 µM | SNB-75 > 100 µM | XF498 > 100 µM | OVCAR-3 > 100 µM | UACC-62 > 100 µM | IGROV-1 > 100 µM

COC1C=CC(C(=O)[N+]2=Cc3[nH]c4ccccc4c3CC2)O1 (stereo not given)
inactive: CAKI-1 > 100 µM | RPMI-8226 71.1 µM | HOP-92 > 100 µM | TK-10 > 100 µM | CCRF-CEM 27.6 µM | SNB-78 > 100 µM | SF-295 > 100 µM | SK-OV-3 52.5 µM | EKVX 88.5 µM | NCI-H460 69.3 µM | HCT-116 > 100 µM | DLD-1 > 100 µM | SW-620 > 100 µM | SNB-75 75.3 µM | OVCAR-3 83.4 µM | UACC-62 > 100 µM | IGROV-1 > 100 µM

COc1ccc2c(c1OC)C(C=C(c1ccccc1)c1ccccc1)CN(C)C2 (stereo not given)
inactive: CAKI-1 14.2 µM | RPMI-8226 18.2 µM | HOP-92 14.2 µM | TK-10 22 µM | CCRF-CEM 21.3 µM | SNB-78 34.6 µM | SF-295 16.2 µM | SK-OV-3 27.4 µM | EKVX 35.3 µM | NCI-H460 11.7 µM | HCT-116 8.39 µM | DLD-1 23.4 µM | SW-620 13.4 µM | SNB-75 34.3 µM | OVCAR-3 12.8 µM | UACC-62 17.3 µM | IGROV-1 14.8 µM

O=C1CC(c2c(-c3ccccc3)[nH]c3ccccc23)C(=O)N1c1ccccc1 (stereo not given)
inactive: CAKI-1 59.4 µM | RPMI-8226 37.6 µM | TK-10 > 100 µM | CCRF-CEM 63.7 µM | SNB-78 > 100 µM | SF-295 13.5 µM | SK-OV-3 > 100 µM | EKVX > 100 µM | NCI-H460 56.2 µM | HCT-116 41.9 µM | DLD-1 70.5 µM | SW-620 > 100 µM | SNB-75 > 100 µM | XF498 > 100 µM | OVCAR-3 61.5 µM | UACC-62 54.2 µM | IGROV-1 > 100 µM

CCOC(=O)/C(C#N)=C(O)/C(=C/c1ccccc1Cl)NC(=O)c1ccccc1
inactive: CAKI-1 > 100 µM | RPMI-8226 26.6 µM | HOP-92 > 100 µM | TK-10 > 100 µM | CCRF-CEM > 100 µM | SNB-78 > 100 µM | SF-295 > 100 µM | SK-OV-3 > 100 µM | EKVX > 100 µM | NCI-H460 > 100 µM | HCT-116 30.3 µM | DLD-1 > 100 µM | SW-620 18.8 µM | SNB-75 > 100 µM | OVCAR-3 > 100 µM | UACC-62 > 100 µM | IGROV-1 > 100 µM

O=C1c2c(c3c4ccccc4n4c3c3c2c2ccccc2n3C/C=C\C4)C(=O)N1Cc1ccccc1
inactive: RPMI-8226 > 100 µM | TK-10 > 100 µM | CCRF-CEM > 100 µM | SF-295 > 100 µM | SK-OV-3 > 100 µM | EKVX > 100 µM | NCI-H460 > 100 µM | HCT-116 > 100 µM | DLD-1 > 100 µM | SW-620 > 100 µM | SNB-75 30.2 µM | XF498 31.3 µM | OVCAR-3 > 100 µM | UACC-62 > 100 µM | IGROV-1 > 100 µM

Cc1ccc(SSCCCCS(=O)O)cc1
inactive: CAKI-1 18.9 µM | TK-10 19.9 µM | CCRF-CEM 5.74 µM | SNB-78 25.1 µM | SF-295 26.4 µM | SK-OV-3 34.2 µM | EKVX 18.5 µM | NCI-H460 32.5 µM | HCT-116 20.7 µM | DLD-1 25.4 µM | SW-620 17.5 µM | SNB-75 14.1 µM | XF498 14.8 µM | OVCAR-3 17.8 µM | UACC-62 15.3 µM | IGROV-1 2.91 µM

Nc1nc(O)c2nc(N)n(Cc3ccccc3)c2n1
inactive: CAKI-1 > 100 µM | RPMI-8226 > 100 µM | HOP-92 > 100 µM | TK-10 > 100 µM | CCRF-CEM > 100 µM | SF-295 > 100 µM | SK-OV-3 > 100 µM | EKVX > 100 µM | NCI-H460 > 100 µM | HCT-116 > 100 µM | DLD-1 > 100 µM | SW-620 > 100 µM | SNB-75 > 100 µM | XF498 > 100 µM | OVCAR-3 > 100 µM | UACC-62 > 100 µM | IGROV-1 > 100 µM

From ChEMBL document CHEMBL1201862, “PubChem BioAssay data set” (2004)
